Laboratory results taken from paper PMC11582173, “Synthesis, cytotoxicity, anti-inflammatory, anti-metastatic and anti-oxidant activities of novel chalcones incorporating 2-phenoxy-N-arylacetamide and thiophene moieties: induction of apoptosis in MCF7 and HEP2 cells” (Naunyn-Schmiedeberg's Archives of Pharmacology, 2024).
Values joined by “and” are separate entries in the source; they are usually repeats but may differ in a detail not shown here. Identical values can stand only once.

Key:
[1] = system: human colorectal carcinoma (HCT116) cells; test: SRB cytotoxic assay, HCT116; assay type: cell-based; settings: HCT-116, single dose 100 µg/mL, 48 h, read-out: %Inhibition at100 µg/mL HCT116
Description: All the prepared compounds were screened at a concentration of 100 µg/mL against six different human cell lines: human laryngeal carcinoma (HEP2), human colorectal carcinoma (HCT116), human breast carcinoma (MCF7), human Lung carcinoma (A549), human liver carcinoma (HEPG2), and normal African Green monkey kidney cell line (VERO). Doxorubicin was used as a positive control for comparison purposes.
The human laryngeal carcinoma (HEP2), colorectal carcinoma (HCT116), breast carcinoma (MCF7), Lung carcinoma (A549), liver carcinoma (HEPG2), and normal African Green monkey kidney cell line (VERO) were purchased from American Tissue Culture Collection (Rockville, MD, USA). The cells were treated for 48 h with a single dose (100 µg/mL) of all the tested chalcones. […] In brief, the cells were seeded in a 96-well microtiter plate at a concentration of 5×10^3 cells/well in 100 µL fresh RPMI-1640 medium and left to attach to the plates for 24 h. Then, cells were incubated with 100 μL of different concentrations (50, 25, 12.5, 6.25, and 0.0 µg/mL) of 5c in triplicate at 37 °C for 48 h. After that, the cells were fixed with 10 µL cold 100% Trichloroacetic acid (TCA) for 1h at 4 °C. The wells were then washed 1 time with distilled water using (automatic Tecan washer, Germany) and stained for 30 min at room temperature with 50 µL 0.4% SRB dissolved in 1% acetic acid. The plates were air-dried and the dye was solubilized with 100 µl/well of 1M tris base (pH 10.5) for 5 min. The optical density (O.D.) of each well was measured spectrophotometrically at 570 nm with an ELISA microplate reader (Sunrise Tecan reader, Germany) with automatic shaking for 30 seconds before reading. The mean background absorbance was subtracted automatically and mean values for each drug concentration were calculated. The percentage of cell survival was calculated as follows: Survival fraction= O.D. (treated cells)/ O.D. (control cells) (Bhat et al. [2023]).

BAX = test: ELISA, BAX concentration; assay type: cell-based, human
Description: (§1) The concentrations of matrix metalloproteinase-2 (MMP2), matrix metalloproteinase-9 (MMP9), Bcl2, BAX, P53, Malondialdehyde (MDA), Glutathione (GSH), caspase 8, caspase 9 and IL-6 were measured quantitatively in 5c treated MCF7 and HEP2 cells using ELISA (Enzyme-Linked Immunosorbent Assay) (Table 4). Gelatinases are a collective word for MMP-2 and MMP-9, where MMP-2 is gelatinase-A and MMP-9 is gelatinase-B. Solid tumor invasion, metastasis, and angiogenesis have long been linked to gelatinases (Das et al. [2021]). […] Bcl2 is a crucial protein that targets apoptosis inhibition. It is regarded as a predictive biomarker or therapeutic target in the diagnosis of cancer due to its broad expression in a variety of cancers (Porter et al. [2009]). […] The pro-apoptotic protein BAX permeabilizes the mitochondrial outer membrane by changing from a cytosolic monomer to a hazardous oligomer triggering the apoptosis process (Fulda and Debatin [2006]). […] P53 transcription factor performs an essential tumor suppressor role by coordinating a wide range of physiological responses, including DNA repair, cell cycle arrest, cellular senescence, cell death, cell differentiation, and metabolism (Liebl and Hofmann [2021]). It was activated in MCF7 and HEP2-treated cells with values (4.28 and 3.109 ng/mL), respectively, compared to their controls (3.44 and 2.06 ng/mL). […]

Malondialdehyde (MDA) = test: ELISA, MDA concentration; assay type: cell-based, human
Description: as §1

IL-6 = test: ELISA, IL-6 concentration; assay type: cell-based, human
Description: as §1

## COc1ccc(NC(=O)COc2ccc(C=CC(=O)c3cccs3)cc2)cc1 [Compound 5c, N-(4-Methoxyphenyl)-2-(4-(3-oxo-3-(thiophen-2-yl)prop-1-en-1-yl)phenoxy)acetamide]
[1]
  inhibition at 100 µg/mL: 41.9 ± 1.8%
BAX; 5c treated HEP2 cells, untreated 1261.8±7.38
  BAX concentration: 1342.8 pg/mL and 1342.8 ± 12.7 pg/mL
BAX; 5c treated MCF7 cells, untreated 946.30±12.7
  BAX concentration: 1099.36 pg/mL and 1099.36 ± 12.8 pg/mL
Malondialdehyde (MDA); 5c treated HEP2 cells, untreated 17.44±0.309
  MDA concentration: 11.988 nM and 11.988 ± 0.178 nM
Malondialdehyde (MDA); 5c treated MCF7 cells, untreated 15.79±0.178
  MDA concentration: 8.79 nM and 8.79 ± 0.309 nM
IL-6; 5c treated HEP2 cells, untreated 85.24±1.16
  IL-6 concentration: 54.27 pg/mL and 54.27 ± 5.509 pg/mL
IL-6; 5c treated MCF7 cells, untreated 100.47±0.439
  IL-6 concentration: 74.68 pg/mL and 74.68 ± 0.979 pg/mL
